Publication PMC4344907 (International journal of pharmaceutics, 2014)
Values joined by “and” are separate entries in the source; they are usually repeats but may differ in a detail not shown here. Equal entries are not always repeated. One block for each compound: values may come before it. Where a SMILES comes first, the peptide text is derived from it. [ ]: non-standard residue; d: D form. Sar = CNCC(=O)O

Legend:
MRP2 [1] = target: T1, MRP2 (Homo sapiens, UniProt Q92887); assay: Non-radiolabelled uptake of Val-Ile-LPV in MDCK-MRP2 cells with MRP2 inhibitor; assay type: cell-based; conditions: DPBS pH 7.4, 37 °C
T1 sequence (Q92887 whole entry): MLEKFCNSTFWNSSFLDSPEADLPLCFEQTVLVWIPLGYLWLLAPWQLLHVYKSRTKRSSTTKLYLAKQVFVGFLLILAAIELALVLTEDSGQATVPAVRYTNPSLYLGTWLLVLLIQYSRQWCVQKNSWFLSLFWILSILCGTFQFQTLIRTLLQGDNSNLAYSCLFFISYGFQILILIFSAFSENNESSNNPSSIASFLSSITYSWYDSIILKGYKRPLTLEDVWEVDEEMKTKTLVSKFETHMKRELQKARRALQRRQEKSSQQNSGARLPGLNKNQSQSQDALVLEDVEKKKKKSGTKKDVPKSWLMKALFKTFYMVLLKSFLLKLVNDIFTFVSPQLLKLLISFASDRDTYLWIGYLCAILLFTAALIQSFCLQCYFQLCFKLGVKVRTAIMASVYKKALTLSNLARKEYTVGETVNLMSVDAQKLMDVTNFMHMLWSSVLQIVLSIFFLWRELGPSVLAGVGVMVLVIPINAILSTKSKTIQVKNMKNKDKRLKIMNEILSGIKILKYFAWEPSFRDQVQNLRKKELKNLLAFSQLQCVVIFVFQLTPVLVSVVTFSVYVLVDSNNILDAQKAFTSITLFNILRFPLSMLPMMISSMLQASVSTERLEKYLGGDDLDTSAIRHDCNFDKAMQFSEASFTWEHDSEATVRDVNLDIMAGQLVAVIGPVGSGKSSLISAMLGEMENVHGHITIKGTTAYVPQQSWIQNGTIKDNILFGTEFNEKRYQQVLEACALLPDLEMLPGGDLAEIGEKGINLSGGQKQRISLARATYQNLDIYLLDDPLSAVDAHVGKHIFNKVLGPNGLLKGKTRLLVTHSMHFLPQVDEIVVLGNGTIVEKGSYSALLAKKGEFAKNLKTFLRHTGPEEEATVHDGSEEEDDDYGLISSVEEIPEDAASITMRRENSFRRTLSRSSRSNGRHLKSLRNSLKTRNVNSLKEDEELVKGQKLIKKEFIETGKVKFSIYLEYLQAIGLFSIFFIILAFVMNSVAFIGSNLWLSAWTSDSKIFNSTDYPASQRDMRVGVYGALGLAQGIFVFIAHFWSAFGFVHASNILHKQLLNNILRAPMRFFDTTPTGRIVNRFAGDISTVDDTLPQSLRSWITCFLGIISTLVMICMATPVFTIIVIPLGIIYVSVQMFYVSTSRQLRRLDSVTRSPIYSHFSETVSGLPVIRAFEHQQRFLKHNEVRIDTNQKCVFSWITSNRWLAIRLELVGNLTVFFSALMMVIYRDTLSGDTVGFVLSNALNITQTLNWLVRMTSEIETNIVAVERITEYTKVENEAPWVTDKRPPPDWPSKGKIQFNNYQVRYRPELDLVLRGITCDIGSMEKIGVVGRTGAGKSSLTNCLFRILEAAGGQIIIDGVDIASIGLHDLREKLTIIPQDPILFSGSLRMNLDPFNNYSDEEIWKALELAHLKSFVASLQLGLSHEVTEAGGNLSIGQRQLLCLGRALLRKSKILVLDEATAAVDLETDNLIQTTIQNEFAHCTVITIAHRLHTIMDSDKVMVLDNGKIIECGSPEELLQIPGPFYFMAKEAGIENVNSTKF

metabolizing enzymes [2] = conditions: liver microsomes; ref Agarwal et al., 2008; cited from earlier work
MDCK-WT cells = assay: Cytotoxicity, MTS based assay, 4 h incubation; assay type: cell-based
metabolizing enzymes [3] = assay: Concentration dependent degradation in rat liver microsomes; assay type: in vitro ADME; conditions: rat liver microsomes 0.3 mg/mL, 5 min, Michaelis-Menten fit
[4] = A-B transepithelial transport across MDCK-MDR1 cells; assay type: in vitro ADME; conditions: dog, MDCK-MDR1, pH 7.4
MRP2 [5] = target: T1, MRP2; assay: [3H]-LPV cellular uptake in MDCK-MRP2 cells; assay type: cell-based; conditions: compound 50 μM, DPBS pH 7.4, 37 °C, 30 min
MDCK-MDR1 cells = conditions: ref Patel et al., 2014b; cited from earlier work
P-gp = P-gp (Homo sapiens, UniProt P08183); assay: [3H]-LPV cellular uptake in MDCK-MDR1 cells; assay type: cell-based; conditions: compound 50 μM, DPBS pH 7.4, 37 °C, 30 min
Sequence of P-gp (P08183 whole entry): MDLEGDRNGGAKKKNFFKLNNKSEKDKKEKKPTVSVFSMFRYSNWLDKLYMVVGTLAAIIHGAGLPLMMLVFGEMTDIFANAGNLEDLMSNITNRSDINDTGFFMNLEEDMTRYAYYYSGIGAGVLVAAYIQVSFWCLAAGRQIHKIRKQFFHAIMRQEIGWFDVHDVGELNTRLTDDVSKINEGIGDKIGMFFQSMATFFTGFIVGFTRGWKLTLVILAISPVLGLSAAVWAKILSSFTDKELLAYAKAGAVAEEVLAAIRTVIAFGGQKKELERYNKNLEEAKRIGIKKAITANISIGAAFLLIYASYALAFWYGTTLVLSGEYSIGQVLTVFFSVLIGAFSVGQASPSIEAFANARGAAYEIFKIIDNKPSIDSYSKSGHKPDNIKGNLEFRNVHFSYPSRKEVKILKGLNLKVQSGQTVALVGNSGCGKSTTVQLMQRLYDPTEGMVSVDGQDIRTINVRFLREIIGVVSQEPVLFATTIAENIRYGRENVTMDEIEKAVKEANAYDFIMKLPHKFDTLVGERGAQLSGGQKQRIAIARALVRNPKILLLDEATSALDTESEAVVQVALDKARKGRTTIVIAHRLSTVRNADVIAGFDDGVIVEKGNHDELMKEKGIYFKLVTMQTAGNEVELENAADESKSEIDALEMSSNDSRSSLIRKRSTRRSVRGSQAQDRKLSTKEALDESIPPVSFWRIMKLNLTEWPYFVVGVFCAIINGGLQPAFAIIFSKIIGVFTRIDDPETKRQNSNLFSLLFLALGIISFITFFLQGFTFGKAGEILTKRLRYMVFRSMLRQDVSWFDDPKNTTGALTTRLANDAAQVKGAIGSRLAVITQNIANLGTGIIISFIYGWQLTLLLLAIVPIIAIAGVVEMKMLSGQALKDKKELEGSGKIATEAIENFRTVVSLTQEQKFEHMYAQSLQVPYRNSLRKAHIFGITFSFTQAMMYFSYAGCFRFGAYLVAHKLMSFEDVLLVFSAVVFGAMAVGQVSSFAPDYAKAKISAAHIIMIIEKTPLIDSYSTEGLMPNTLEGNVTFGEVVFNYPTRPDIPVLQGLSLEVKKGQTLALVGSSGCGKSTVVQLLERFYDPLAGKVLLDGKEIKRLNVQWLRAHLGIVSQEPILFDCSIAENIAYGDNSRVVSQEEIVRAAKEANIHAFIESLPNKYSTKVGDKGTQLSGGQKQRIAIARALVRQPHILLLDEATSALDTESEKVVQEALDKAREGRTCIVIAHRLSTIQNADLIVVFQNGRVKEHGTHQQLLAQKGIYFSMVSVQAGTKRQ

MDCK-MRP2 cells = conditions: ref Patel et al., 2014b; cited from earlier work
metabolizing enzymes [6] = assay: Time dependent degradation in rat liver microsomes; assay type: in vitro ADME; conditions: rat liver microsomes 0.3 mg/mL, 25 μM, 37 °C, 2 h
[7] = A-B transepithelial transport across MDCK-MRP2 cells; assay type: in vitro ADME; conditions: dog, pH 7.4
[8] = A-B transepithelial transport across Caco2 cells; assay type: in vitro ADME; conditions: human, Caco-2, pH 5
peptide transporters [9] = assay: [3H]-GlySar uptake in MDCK-MDR1 cells; assay type: cell-based; conditions: cold GlySar 10 mM, DPBS pH 7.4, 37 °C
peptide transporters [10] = assay: [3H]-GlySar uptake in MDCK-MRP2 cells; assay type: cell-based; conditions: cold GlySar 10 mM, DPBS pH 7.4, 37 °C

Uptake as % control (Val-Ile-LPV) (MRP2 [1]; uptake of Val-Ile-LPV 50 μM in the presence of MK 571 25 μM): 104 ± 4 % control | Uptake as % control (Val-Ile-LPV) (MRP2 [1]; uptake of Val-Ile-LPV 50 μM in the presence of MK 571 75 μM): 102 ± 2 % control
Compound: CN(C)C(=O)CCSC(SCCC(=O)O)c1cccc(/C=C/c2ccc3ccc(Cl)cc3n2)c1 (centres unmarked) [MK 571]

Compound: Cc1cccc(C)c1OCC(=O)NC(Cc1ccccc1)C(CC(Cc1ccccc1)NC(=O)C(C(C)C)N1CCCNC1=O)OC(=O)C(NC(=O)C(N)C(C)C)C(C)C (centres unmarked) [valine-valine-LPV]
Metabolic stability, fold increase relative to LPV (metabolizing enzymes [2]): 1.48 fold

Compound: Triton-X
Reduction in absorbance relative to control (MDCK-WT cells; 0.1%, positive control): 90%

Vmax (metabolizing enzymes [3]): 8.1 ± 0.4 nmoles/min/mg protein | Papp A→B at 3 h, 25 μM [4]: […] | Enhancement of [3H]-LPV uptake in the presence of unlabelled compound (MRP2 [5]): […] | Enhancement of [3H]-LPV uptake in the presence of unlabelled compound (P-gp): 3.2 fold | Papp A→B at 3 h, 25 μM [7]: […] | Papp A→B at 3 h, 25 μM [8]: […]
Compound: Cc1cccc(C)c1OCC(=O)N[C@@H](Cc1ccccc1)[C@@H](O)C[C@H](Cc1ccccc1)NC(=O)[C@H](C(C)C)N1CCCNC1=O [LPV, lopinavir]

Compound: CN(CC(=O)O)C(=O)CN [GlySar] (H-Gly-[Sar]-OH)
Reduction in [3H]-GlySar uptake (peptide transporters [9]): ~80% | Reduction in [3H]-GlySar uptake (peptide transporters [10]): ~80%

Compound: Cc1cccc(C)c1OCC(=O)NC(Cc1ccccc1)C(CC(Cc1ccccc1)NC(=O)C(C(C)C)N1CCCNC1=O)OC(=O)C(NC(=O)CN)C(C)C (centres unmarked) [glycine-valine-LPV]
Metabolic stability, fold increase relative to LPV (metabolizing enzymes [2]): 2.44 fold
